Measurements taken from patent US12396971B2, “Administration of beta-hydroxybutyrate and related compounds in humans for the treatment and/or prevention of respiratory illnesses” (AXCESS GLOBAL SCIENCES, LLC, priority 2020, dated 2025).

How the values were obtained:
Type in all cases: in vivo, humans
[1] = test system: respiratory illness, COVID-19; assay: Symptoms and recovery monitoring in individuals with COVID-19 administered R-beta-hydroxybutyrate; conditions: composition comprising 10 g twice a day
Experimental: (§1) A composition comprising 10 g of R-beta-hydroxybutyrate was administered to individuals twice a day. […] The patients were tested and monitored to determine the impact of administration of beta-hydroxybutyrate on the illness progression and recovery. Administration of the beta-hydroxybutyrate reduced the number of symptoms and the severity of symptoms. […] Since quicker returns to normal values may indicate less chances for long-term continuance of viral respiratory illnesses (e.g., long-haul or long-term Covid-19), administration of beta-hydroxybutyrate may be associated with decreased potential for long-term continuance of symptoms.

[2] = test system: respiratory illness, COVID-19; assay: Cough severity by Cough Severity Visual Analogue Scale over 4 days; conditions: 10 g, orally, vs not administered, FIG. 1
Experimental: as §1
FIG. 1 graphically illustrates cough measured over 4 days for individuals administrated 10 g of R-beta-hydroxybutyrate and not administered 10 g of R-beta-hydroxybutyrate. Cough severity was measured using the Cough Severity Visual Analogue Scale. As illustrated, cough severity was lower with administration of 10 g of R-beta-hydroxybutyrate. Furthermore, cough severity was not as high when beta-hydroxybutyrate was orally administered.

[3] = test system: respiratory illness, COVID-19; assay: Cardiovascular endurance, standard 15 minute cycling test over 4 days; conditions: 10 g vs not administered, FIG. 3
Experimental: as §1
FIG. 3 graphically illustrates endurance capacity monitoring in individuals over 4 days for individuals administered 10 g of R-beta-hydroxybutyrate and not administered 10 g of R-beta-hydroxybutyrate. Cardiovascular endurance was measured using a standard 15 minute cycling test and is illustrated in FIG. 3 as a percentage of normal.

[4] = test system: respiratory illness, COVID-19; assay: Lung function (FEV) measurements over 4 days; conditions: FIG. 2
Experimental: as §1
FIG. 2 graphically illustrates lung function measurements over 4 days for individuals administered 10 g of R-beta-hydroxybutyrate and not administered 10 g of R-beta-hydroxybutyrate. […] As illustrated, improvement in FEV plateaued when beta-hydroxybutyrate was not administered while it continued to improve when R-beta-hydroxybutyrate was administered. Reduction in the chances of plateauing lung function (e.g., at reduced levels) may decrease potential for long-term continuance of symptoms such as those found in long term or long-haul COVID-19 sufferers (e.g., individuals who had COVID-19 and continue to present with symptoms 4 or more weeks after infection).

## C[C@@H](O)CC(=O)O [R-beta-hydroxybutyrate, (R)-3-Hydroxybutyric acid]
[1]
  number of symptoms: reduced
  recovery time: decreased
  severity of symptoms: reduced
[2]
  cough severity (Cough Severity Visual Analogue Scale): lower
[3]
  cardiovascular endurance as a percentage of normal: overall better
  recovery to normal cardiovascular endurance: quicker recovery to normal
[4]; 10 g vs not administered (FEV plateaued without)
  time for lung function to improve to normal: improve to normal more quickly
[4]; 10 g vs not administered
  FEV (as a % of normal FEV): higher overall
